The source of these data is patent US20130072505A1, “6,9-Disubstituted Purine Derivatives and Their Use for Treating Skin” (priority 2006, published 2013).

The test system of data set [1] is human skin fibroblasts. Kind of data set: short-term studies on cultured human skin fibroblasts (attachment, survival, growth, apoptosis). It counts as cell-based. Here is the method: Several short-term, preliminary studies of the effect of 6-furfurylamino-9-(2-tetrahydropyranyl)purine on cultured human skin fibroblasts cells have been carried out. The initial study involved the addition of 6-furfurylamino-9-(2-tetrahydropyranyl)purine (40 to 400 μM) to human skin fibroblasts cells in a culture. The percentage of attachment of the cells to the surface of the culture flask was not affected after 6 hours of treatment. In the remaining experiments reported in this example, the 6-furfurylamino-9-(2-tetrahydropyranyl)purine was added directly to the culture medium at the same time as the cells were seeded.
A wider range of concentrations (from 0.01 to 500 μM) was tested for determining the effects of 6-furfurylamino-9-(2-tetrahydropyranyl)purine on the survival of cultured human skin fibroblasts after 3 days of treatment.
The effect of 6-furfurylamino-9-(2-tetrahydropyranyl)purine (0 to 400 μM) treatment on short term growth of young human fibroblasts was also evaluated. Cell growth was similar in untreated samples and in samples treated with 40, 80, and 200 μM 6-furfurylamino-9-(2-tetrahydropyranyl)purine. […] Similar experiments were carried out to determine the extent of apoptosis and beta-galactosidase staining in 6-furfurylamino-9-(2-tetrahydropyranyl)purine-treated and untreated cells.
Based on these studies, 6-furfurylamino-9-(2-tetrahydropyranyl)purine appears to be well tolerated by young and senescent human skin fibroblasts and to have positive effects in terms of reversion of actin pattern and morphology of senescent cells to relatively younger characteristics.

Data set [2] has as its system Chinese hamster ovary (CHO) cells. Kind of data set: In Vitro Chromosome Aberration Screening Assay. To be noted: 0.272 to 272 μg/ml; absence and presence of S9. It counts as cell-based. Here is the method:
6-Furfurylamino-9-(2-tetrahydropyranyl)purine was tested in the chromosome aberration screening assay using Chinese hamster ovary (CHO) cells in both the absence and presence of an Acroclor-induced S9 activation system to evaluate its clastogenic potential. DMSO was used as the solvent and the dose rate ranged from 0.272 to 272 μg/ml.

The test system of data set [3] is human subjects. As to the kind of experiment: Human Repeated Insult Patch Test. It counts as in vivo. The note with it: test gel about 0.1 percent. How it is done:
Test gel (about 0.2 ml) containing about 0.1 percent 6-furfurylamino-9-(2-tetrahydropyranyl)purine was placed onto a 2 cm square occlusion patch was placed on each subjects back and remained for 24 hours. This procedure was repeated every Monday, Wednesday, and Friday until nine (9) applications had been made on the same area (induction phase). The area was examined before each new application. About 10-14 days after the ninth patch had been removed, a challenge patch (challenge phase) on a new area of the back and then examined 24 and 72 hours thereafter for reactivity. Skin responses were based on a six-point scale (0=no evidence of effect; +=barely perceptible; 1=mild; 2=moderate; 3=marked; and 4=severe).
Fifty-two (52) subjects completed the induction and challenge phases (total of 10 applications per subject).

The test system of data set [4] is normal, human-derived epidermal keratinocytes (NHEK). As to the kind of experiment: Epiderm MTT Viablity Assay. It counts as cell-based. How it is done:
Using MatTek Corporation's EpiDerm™ System (consisting of normal, human-derived epidermal keratinocytes (NHEK) which have been cultured to form a multilayered, highly differentiated model of the human epidermis), it was determined that 6-furfurylamino-9-(2-tetrahydropyranyl)purine would be expected to be classified as non-irritating.

For data set [5], the system named is chorioallantoic membrane of White Leghorn eggs. Kind of data set: Chorioallantoic Membrane Vascular Assay (ocular irritation). How it is done:
The chorioallantoic membrane of White Leghorn eggs, incubated for 14 days, were dosed with 40 μl of the test compound (and three lower concentrations in distilled water) and then further incubated for about 30 minutes at which time the chorioallantoic membrane was examined for vascular hemorrhage, capillary injection, and/or the presence of ghost vessels.

The test system of data set [6] is Salmonella typhimurium histidien auxotrophs TA98 and TA100. As to the kind of experiment: Ames Test. It counts as cell-based. To be noted: 2.5 to 5000 μg/plate; presence and absence of rat liver S9. Here is the method: Tests were carried out using DMSO as solvent and dose levels of 6-furfurylamino-9-(2-tetrahydropyranyl)purine at 2.5, 5.0, 15, 50, 500, 1500, and 5000 μg/plate based upon standard protocol and procedures (Ames et al., Mutation Research, 31, 347-364 (1975); Maron et al., Mutation Research, 113, 173-215 (1983)).

Molecules are shown by their SMILES.

With `c1coc(CNc2ncnc3c2ncn3C2CCCCO2)c1` (centres unmarked) [6-furfurylamino-9-(2-tetrahydropyranyl)purine], in data set [1] (0.01 to 500 μM, 3 days of treatment), the “toxicity or other negative effects on survival of cultured human skin fibroblasts” value is reported as “No toxicity or other negative effects were apparent”. Also, in data set [1] (40, 80, and 200 μM), the “short term growth of young human fibroblasts vs untreated” value is listed as “similar”. For the same compound, the “percentage of attachment of the cells to the surface of the culture flask” value in data set [1] (40 to 400 μM, after 6 hours of treatment) is “not affected”. For the same compound, in data set [1] (about 400 μM), the “short term growth of young human fibroblasts” value is on record as “slight decrease in growth of cells”. Further, the “cell growth and survival” value in data set [1] (between 1 and 200 μM, 3 days of treatment) was “slight stimulation of cell growth and survival”. Further, the “apoptosis and beta-galactosidase staining (premature senescence)” value in data set [1] (various doses (0 to 400 μM)) was “no suggestion of induction of apoptosis or premature senescence”. For the same compound, the “induction of additional growth or cell division” value in data set [1] (young and senescent human skin fibroblasts) is listed as “No significant induction of additional growth or cell division”. Also, the “induction of structural and numerical chromosome aberrations” value in data set [2] is “negative for the induction of structural and numerical chromosome aberrations”. The “skin responses, six-point scale (0=no evidence of effect; +=barely perceptible; 1=mild; 2=moderate; 3=marked; 4=severe)” value in data set [3] (challenge phase, at 24 hours, 52 subjects) is given as “only one subject had a barely perceptible rating (+)”. Also, the “induced allergic contact dermatitis or other irritation” value in data set [3] (induction and challenge phases) is listed as “No evidence of induced allergic contact dermatitis or other irritation”. In addition, in data set [4], the “irritation classification, EpiDerm System” value is given as “non-irritating”. Also, the ocular irritation classification result in data set [5] is “non-irritant”. In addition, the “RC50 (calculated concentration producing a positive reaction in 50% of treated eggs)” value in data set [5] (about 30 minutes, <1% irritant, >3% non-irritant) is listed as 105%. For the same compound, the mutagenic responses result in data set [6] was “no positive mutagenic responses”.
